Results as given in US20090217390A1, “Non-human animal sarcoma model” (priority 2005, published 2009).
Values joined by “and” are separate entries in the source; they are usually repeats but may differ in a detail not shown here. Equal entries are not always repeated.

Tests used:
Format in all cases: cell-based, mouse
[1] = system: EWS-FLI1 chimeric fusion expression in clone 7.5; test: Induction of chimeric fusion by doxycycline (RT-PCR), clone 7.5; conditions: 48 hours
Description: (§1) FIG. 3. Induction of chimeric fusion by Doxycycline. A. Upper gel. Induction of chimeric fusion following treatment of the cells with increasing doxycycline doses (0-3 μg/ml) in clone 7.5. The maximum induction was obtained for 2.5-μg/ml doxycycline doses. Lower gel. The quantity of amplified product was identical in all cases, as shown by Beta-actin. B. Upper gel. The maximum induction for clone 10.6 was at 1.5-μg/ml doxycycline doses. Higher doses caused saturation of the promoter's response. Lower gel. Beta-actin.
(§2) Clones 7.5 and 10.6 received increasing doses of doxycycline for 48 hours, after which time the presence of fusion was examined by means of RT-PCR.

[2] = system: EWS-FLI1 chimeric fusion expression in clone 10.6; test: Induction of chimeric fusion by doxycycline (RT-PCR), clone 10.6; conditions: 48 hours
Description: as §1, §2

[3] = system: C3H/10T1/2 parental cell line; test: Cytotoxicity experiment with increasing doses of blasticidin; conditions: doses 0.3-3 μg/ml
Description: The selective blasticidin dose was established on the basis of a previous cytotoxicity experiment for the C3H/10T1/2 parental cell line, which received increasing doses of blasticidin (0.3, 0.6, 0.8, 1, 1.5, 2, 2.5, 3 μg/ml). 2 μg/ml was determined to be the lowest dose that induced 100% death due to cytotoxicity.

SMILES | doxycycline dose causing a slight induction of chimeric fusion [1] | doxycycline concentration of maximum induction of chimeric fusion ([1]; doses 0-3 μg/ml) | doxycycline concentration of maximum induction of chimeric fusion (higher doses cause no greater induction) [2] | doxycycline dose at which induction of fusion was found [2] | lowest dose that induced 100% death due to cytotoxicity [3]
C[C@H]1c2cccc(O)c2C(=O)C2=C(O)[C@]3(O)C(=O)C(C(N)=O)=C(O)[C@@H](N(C)C)[C@@H]3[C@@H](O)[C@@H]21 [doxycycline] | 0.3 µg/mL | 2.5 µg/mL | 1.5 to 2 µg/mL and 1.5 µg/mL | greater than 0.3 μg/ml | –
CN(CC[C@H](N)CC(=O)N[C@H]1C=C[C@H](n2ccc(N)nc2=O)O[C@@H]1C(=O)O)C(=N)N [blasticidin] | – | – | – | – | 2 µg/mL
